From ChEMBL document CHEMBL4138123, “Design, synthesis and biological evaluation of novel pyrazolochalcones as potential modulators of PI3K/Akt/mTOR pathway and inducers of apoptosis in breast cancer cells” (Eur J Med Chem, 2017)

Assays:
Assay type in all cases: functional
DU-145 = experiment: Cytotoxicity against human DU145 cells assessed as growth inhibition after 48 hrs by sulforhodamine B assay; settings: DU-145, 48 h; for CC50: read-out: LC50 (the source's name)
SR = experiment: Cytotoxicity against human SR cells assessed as cell growth at 0.1 uM after 48 hrs by sulforhodamine B assay relative to control; settings: read-out: Activity
MDA-MB-435 = experiment: Cytotoxicity against human MDA-MB-435 cells assessed as growth inhibition after 48 hrs by sulforhodamine B assay; settings: MDA-MB-435, 48 h
KM12 [1] = experiment: Cytotoxicity against human KM12 cells assessed as cell growth at 0.01 uM after 48 hrs by sulforhodamine B assay relative to control; settings: KM12, 48 h, read-out: Activity
SK-MEL-28 = experiment: Cytotoxicity against human SK-MEL-28 cells assessed as cell growth at 0.01 uM after 48 hrs by sulforhodamine B assay relative to control; settings: SK-MEL-28, 48 h, read-out: Activity
TK-10 = experiment: Cytotoxicity against human TK10 cells assessed as cell growth at 0.01 uM after 48 hrs by sulforhodamine B assay relative to control; settings: TK-10, 48 h, read-out: Activity
HCC 2998 [2] = experiment: Cytotoxicity against human HCC2998 cells assessed as cell growth at 0.01 uM after 48 hrs by sulforhodamine B assay relative to control; settings: HCC 2998, 48 h, read-out: Activity
SNB-19 = experiment: Cytotoxicity against human SNB19 cells assessed as cell growth at 10 uM after 48 hrs by sulforhodamine B assay relative to control; settings: SNB-19, 48 h, read-out: Activity
HCT-15 [3] = experiment: Cytotoxicity against human HCT15 cells assessed as cell growth at 10 uM after 48 hrs by sulforhodamine B assay relative to control; settings: HCT-15, 48 h, read-out: Activity
COLO 205 [4] = experiment: Cytotoxicity against human COLO205 cells assessed as cell growth at 10 uM after 48 hrs by sulforhodamine B assay relative to control; settings: COLO 205, 48 h, read-out: Activity
M14 = experiment: Cytotoxicity against human M14 cells assessed as growth inhibition after 48 hrs by sulforhodamine B assay; settings: M14, 48 h
HT-29 = experiment: Cytotoxicity against human HT-29 cells assessed as cell growth at 0.01 uM after 48 hrs by sulforhodamine B assay relative to control; settings: HT-29, 48 h, read-out: Activity
COLO 205 [5] = experiment: Cytotoxicity against human COLO205 cells assessed as cell growth at 0.1 uM after 48 hrs by sulforhodamine B assay relative to control; settings: COLO 205, 48 h, read-out: Activity
MDA-MB-468 = experiment: Cytotoxicity against human MDA-MB-468 cells assessed as cell growth at 0.01 uM after 48 hrs by sulforhodamine B assay relative to control; settings: MDA-MB-468, 48 h, read-out: Activity
UACC-257 = experiment: Cytotoxicity against human UACC257 cells assessed as cell growth at 0.1 uM after 48 hrs by sulforhodamine B assay relative to control; settings: UACC-257, 48 h, read-out: Activity
PC-3 = experiment: Cytotoxicity against human PC3 cells assessed as growth inhibition after 48 hrs by sulforhodamine B assay; settings: PC-3, 48 h
OVCAR-5 = experiment: Cytotoxicity against human OVCAR5 cells assessed as cell growth at 10 uM after 48 hrs by sulforhodamine B assay relative to control; settings: OVCAR-5, 48 h, read-out: Activity
KM12 [6] = experiment: Cytotoxicity against human KM12 cells assessed as cell growth at 1 uM after 48 hrs by sulforhodamine B assay relative to control; settings: KM12, 48 h, read-out: Activity
SN12C = experiment: Cytotoxicity against human SN12C cells assessed as cell growth at 0.1 uM after 48 hrs by sulforhodamine B assay relative to control; settings: read-out: Activity
HCT-15 [7] = experiment: Cytotoxicity against human HCT15 cells assessed as cell growth at 0.01 uM after 48 hrs by sulforhodamine B assay relative to control; settings: HCT-15, 48 h, read-out: Activity
SK-OV-3 = experiment: Cytotoxicity against human SKOV3 cells assessed as cell growth at 0.1 uM after 48 hrs by sulforhodamine B assay relative to control; settings: SK-OV-3, 48 h, read-out: Activity
MDA-MB-231 = experiment: Cytotoxicity against human MDA-MB-231 cells assessed as cell growth at 10 uM after 48 hrs by sulforhodamine B assay relative to control; settings: MDA-MB-231, 48 h, read-out: Activity
COLO 205 [8] = experiment: Cytotoxicity against human COLO205 cells assessed as growth inhibition after 48 hrs by sulforhodamine B assay; settings: COLO 205, 48 h
CCRF-CEM = experiment: Cytotoxicity against human CCRF-CEM cells assessed as growth inhibition after 48 hrs by sulforhodamine B assay
Hs-578T [9] = experiment: Cytotoxicity against human Hs 578T cells assessed as cell growth at 0.01 uM after 48 hrs by sulforhodamine B assay relative to control; settings: read-out: Activity
OVCAR-8 = experiment: Cytotoxicity against human OVCAR8 cells assessed as cell growth at 10 uM after 48 hrs by sulforhodamine B assay relative to control; settings: OVCAR-8, 48 h, read-out: Activity
HCC 2998 [10] = experiment: Cytotoxicity against human HCC2998 cells assessed as cell growth at 10 uM after 48 hrs by sulforhodamine B assay relative to control; settings: HCC 2998, 48 h, read-out: Activity
Hs-578T [11] = experiment: Cytotoxicity against human Hs 578T cells assessed as cell growth at 1 uM after 48 hrs by sulforhodamine B assay relative to control; settings: read-out: Activity
HOP-62 = experiment: Cytotoxicity against human HOP62 cells assessed as cell growth at 1 uM after 48 hrs by sulforhodamine B assay relative to control; settings: HOP-62, 48 h, read-out: Activity
HCT-116 = experiment: Cytotoxicity against human HCT116 cells assessed as cell growth at 10 uM after 48 hrs by sulforhodamine B assay relative to control; settings: HCT-116, 48 h, read-out: Activity
A498 = experiment: Cytotoxicity against human A498 cells assessed as cell growth at 100 uM after 48 hrs by sulforhodamine B assay relative to control; settings: A498, 48 h, read-out: Activity
HCC 2998 [12] = experiment: Cytotoxicity against human HCC2998 cells assessed as cell growth at 0.1 uM after 48 hrs by sulforhodamine B assay relative to control; settings: HCC 2998, 48 h, read-out: Activity
UO-31 = experiment: Cytotoxicity against human UO31 cells assessed as cell growth at 0.1 uM after 48 hrs by sulforhodamine B assay relative to control; settings: UO-31, 48 h, read-out: Activity
OVCAR-3 = experiment: Cytotoxicity against human OVCAR3 cells assessed as growth inhibition after 48 hrs by sulforhodamine B assay; settings: OVCAR-3, 48 h

`COc1cc(C(=O)/C=C/c2cc(-c3ccc4c(c3)OCO4)n[nH]2)cc(OC)c1OC` showed a GI50 (DU-145) of 2.92 µM, a TGI (DU-145) of 9.16 µM and a CC50 (DU-145) of 31.4 µM. It also gave a growth at 0.1 µM (SR) of 94%, a GI50 (MDA-MB-435) of 2.28 µM and an LC50 (MDA-MB-435) of 22.5 µM. For the same molecule, the TGI (MDA-MB-435) was 5.8 µM, the growth at 0.01 µM (KM12 [1]) was 97% and the growth at 0.01 µM (SK-MEL-28) was 100%. It also gave a growth at 0.01 µM (TK-10) of 93%, a growth at 0.01 µM (HCC 2998 [2]) of 99% and a growth at 10 µM (SNB-19) of 7%. The growth at 10 µM (HCT-15 [3]) was -16%, the growth at 10 µM (COLO 205 [4]) was -47% and the GI50 (M14) was 2.91 µM. It also gave an LC50 (concentration killing 50% of cells) (M14) of 37.8 µM, a TGI (M14) of 9.21 µM and a growth at 0.01 µM (HT-29) of 103%. It also gave a growth at 0.1 µM (COLO 205 [5]) of 98%, a growth at 0.01 µM (MDA-MB-468) of 89% and a growth at 0.1 µM (UACC-257) of 97%. It also gave a GI50 (PC-3) of 1.51 µM, an LC50 (PC-3) of 12.4 µM and a TGI (PC-3) of 4.02 µM. The growth at 10 µM (OVCAR-5) was -2%, the growth at 1 µM (KM12 [6]) was 93% and the growth at 0.1 µM (SN12C) was 96%. The growth at 0.01 µM (HCT-15 [7]) was 98%, the growth at 0.1 µM (SK-OV-3) was 105% and the growth at 10 µM (MDA-MB-231) was -22%. For the same molecule, the GI50 (COLO 205 [8]) was 2.08 µM, the LC50 (COLO 205 [8]) was 12.6 µM and the TGI (COLO 205 [8]) was 4.66 µM. The GI50 (CCRF-CEM) was 2 µM, the LC50 (concentration killing 50% of cells) (CCRF-CEM) was greater than 100 µM and the TGI (CCRF-CEM) was 5.74 µM. The growth at 0.01 µM (Hs-578T [9]) was 92%, the growth at 10 µM (OVCAR-8) was -23% and the growth at 10 µM (HCC 2998 [10]) was -64%. The growth at 1 µM (Hs-578T [11]) was 90%, the growth at 1 µM (HOP-62) was 93% and the growth at 10 µM (HCT-116) was -43%. The growth at 100 µM (A498) was -98%, the growth at 0.1 µM (HCC 2998 [12]) was 100% and the growth at 0.1 µM (UO-31) was 82%. It also gave a GI50 (OVCAR-3) of 1.71 µM, an LC50 (OVCAR-3) of 7.17 µM and a TGI (OVCAR-3) of 3.5 µM.
With `COc1cc2c(cc1OC)C(=O)/C(=C/c1cc(-c3ccc4c(c3)OCO4)n[nH]1)C2` the GI50 (DU-145) was 1.45 µM, the TGI (DU-145) was 2.86 µM and the CC50 (DU-145) was 5.64 µM. It also gave a growth at 0.1 µM (SR) of 98%, a GI50 (MDA-MB-435) of 1.73 µM and an LC50 (MDA-MB-435) of 6.18 µM. For the same molecule, the TGI (MDA-MB-435) was 3.27 µM, the growth at 0.01 µM (KM12 [1]) was 100% and the growth at 0.01 µM (SK-MEL-28) was 104%. For the same molecule, the growth at 0.01 µM (TK-10) was 88%, the growth at 0.01 µM (HCC 2998 [2]) was 92% and the growth at 10 µM (SNB-19) was -95%. The growth at 10 µM (HCT-15 [3]) was -69%, the growth at 10 µM (COLO 205 [4]) was -97% and the GI50 (M14) was 1.82 µM. The LC50 (concentration killing 50% of cells) (M14) was 6.34 µM, the TGI (M14) was 3.4 µM and the growth at 0.01 µM (HT-29) was 98%. It also gave a growth at 0.1 µM (COLO 205 [5]) of 105%, a growth at 0.01 µM (MDA-MB-468) of 93% and a growth at 0.1 µM (UACC-257) of 94%. The GI50 (PC-3) was 1.29 µM, the LC50 (PC-3) was 6.6 µM and the TGI (PC-3) was 2.92 µM. The growth at 10 µM (OVCAR-5) was -92%, the growth at 1 µM (KM12 [6]) was 67% and the growth at 0.1 µM (SN12C) was 93%. It also gave a growth at 0.01 µM (HCT-15 [7]) of 95%, a growth at 0.1 µM (SK-OV-3) of 105% and a growth at 10 µM (MDA-MB-231) of -87%. It also gave a GI50 (COLO 205 [8]) of 1.7 µM, an LC50 (COLO 205 [8]) of 5.68 µM and a TGI (COLO 205 [8]) of 3.11 µM. The GI50 (CCRF-CEM) was 1.14 µM, the LC50 (concentration killing 50% of cells) (CCRF-CEM) was greater than 100 µM and the TGI (CCRF-CEM) was 3.61 µM. The growth at 0.01 µM (Hs-578T [9]) was 95%, the growth at 10 µM (OVCAR-8) was -89% and the growth at 10 µM (HCC 2998 [10]) was -88%. It also gave a growth at 1 µM (Hs-578T [11]) of 92%, a growth at 1 µM (HOP-62) of 82% and a growth at 10 µM (HCT-116) of -75%. It also gave a growth at 100 µM (A498) of -97%, a growth at 0.1 µM (HCC 2998 [12]) of 97% and a growth at 0.1 µM (UO-31) of 85%. It also gave a GI50 (OVCAR-3) of 1.41 µM, an LC50 (OVCAR-3) of 5.58 µM and a TGI (OVCAR-3) of 2.8 µM.
